Laboratory results from the kinase profiling compilation of Christmann-Franck et al. (2016).

Experiments:
Assay in all cases: KINOMEscan competition binding
Conditions in all cases: compound 10.0 µM
[1] = test system: FLT3 (human), P36888 [ITD]
[2] = test system: FLT3 (human), P36888 [K663Q]
[3] = test system: FLT3 (human), P36888 [N841I]
[4] = test system: KIT (human), P10721 [D816V]
[5] = test system: KIT (human), P10721 [V559D/T670I]
[6] = test system: KIT (human), P10721 [V559D]
[7] = test system: ABL1 (human), P00519 [E255K]
[8] = test system: ABL1 (human), P00519 [M351T]
[9] = test system: EGFR (human), P00533 [746-750 del]
[10] = test system: EGFR (human), P00533 [G719S]
[11] = test system: EGFR (human), P00533 [L861Q]
[12] = test system: EGFR (human), P00533 [P753S; 747-752 del]
[13] = test system: EIF2AK4 KD2 (human), Q9P2K8 [S808G]
[14] = test system: PIK3CA (human), P42336 [C420R]
[15] = test system: PIK3CA (human), P42336 [E545K]
[16] = test system: PIK3CA (human), P42336 [H1047Y]
[17] = test system: PIK3CA (human), P42336 [Q546K]
[18] = test system: PIK3CA (human), P42336 [E545A]
[19] = test system: PIK3CA (human), P42336 [I800L]
Sequence of PIK3CA (human), P42336 [I800L] (P42336 whole entry I800L, looked up): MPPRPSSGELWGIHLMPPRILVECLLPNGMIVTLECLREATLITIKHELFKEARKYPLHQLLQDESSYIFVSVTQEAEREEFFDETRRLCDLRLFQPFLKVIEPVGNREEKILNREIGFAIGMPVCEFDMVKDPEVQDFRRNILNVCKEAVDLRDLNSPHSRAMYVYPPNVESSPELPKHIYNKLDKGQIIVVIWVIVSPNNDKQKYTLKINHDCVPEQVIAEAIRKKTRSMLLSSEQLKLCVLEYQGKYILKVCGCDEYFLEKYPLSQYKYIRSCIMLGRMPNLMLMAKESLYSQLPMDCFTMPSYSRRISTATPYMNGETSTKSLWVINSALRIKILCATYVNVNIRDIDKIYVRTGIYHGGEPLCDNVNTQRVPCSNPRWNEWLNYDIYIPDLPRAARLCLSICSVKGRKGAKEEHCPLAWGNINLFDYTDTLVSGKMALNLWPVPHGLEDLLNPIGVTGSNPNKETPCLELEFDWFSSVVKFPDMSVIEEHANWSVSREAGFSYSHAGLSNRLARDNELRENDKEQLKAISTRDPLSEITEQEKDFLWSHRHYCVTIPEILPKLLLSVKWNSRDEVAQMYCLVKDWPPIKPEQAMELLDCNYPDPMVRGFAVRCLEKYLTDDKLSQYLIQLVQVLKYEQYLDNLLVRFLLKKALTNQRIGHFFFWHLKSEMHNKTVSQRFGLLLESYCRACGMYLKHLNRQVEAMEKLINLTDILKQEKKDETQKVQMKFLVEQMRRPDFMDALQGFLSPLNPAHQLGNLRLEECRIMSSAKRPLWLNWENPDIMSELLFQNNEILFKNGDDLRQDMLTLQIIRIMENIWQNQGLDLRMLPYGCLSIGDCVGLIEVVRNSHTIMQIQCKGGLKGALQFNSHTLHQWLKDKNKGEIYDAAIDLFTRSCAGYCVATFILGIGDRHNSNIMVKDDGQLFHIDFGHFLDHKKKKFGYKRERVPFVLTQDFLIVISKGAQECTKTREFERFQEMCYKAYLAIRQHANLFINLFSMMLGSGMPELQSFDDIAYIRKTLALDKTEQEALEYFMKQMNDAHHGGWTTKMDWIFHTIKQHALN

Sequence of KIT (human), P10721 [V559D/T670I] (P10721 whole entry V559D/T670I, looked up): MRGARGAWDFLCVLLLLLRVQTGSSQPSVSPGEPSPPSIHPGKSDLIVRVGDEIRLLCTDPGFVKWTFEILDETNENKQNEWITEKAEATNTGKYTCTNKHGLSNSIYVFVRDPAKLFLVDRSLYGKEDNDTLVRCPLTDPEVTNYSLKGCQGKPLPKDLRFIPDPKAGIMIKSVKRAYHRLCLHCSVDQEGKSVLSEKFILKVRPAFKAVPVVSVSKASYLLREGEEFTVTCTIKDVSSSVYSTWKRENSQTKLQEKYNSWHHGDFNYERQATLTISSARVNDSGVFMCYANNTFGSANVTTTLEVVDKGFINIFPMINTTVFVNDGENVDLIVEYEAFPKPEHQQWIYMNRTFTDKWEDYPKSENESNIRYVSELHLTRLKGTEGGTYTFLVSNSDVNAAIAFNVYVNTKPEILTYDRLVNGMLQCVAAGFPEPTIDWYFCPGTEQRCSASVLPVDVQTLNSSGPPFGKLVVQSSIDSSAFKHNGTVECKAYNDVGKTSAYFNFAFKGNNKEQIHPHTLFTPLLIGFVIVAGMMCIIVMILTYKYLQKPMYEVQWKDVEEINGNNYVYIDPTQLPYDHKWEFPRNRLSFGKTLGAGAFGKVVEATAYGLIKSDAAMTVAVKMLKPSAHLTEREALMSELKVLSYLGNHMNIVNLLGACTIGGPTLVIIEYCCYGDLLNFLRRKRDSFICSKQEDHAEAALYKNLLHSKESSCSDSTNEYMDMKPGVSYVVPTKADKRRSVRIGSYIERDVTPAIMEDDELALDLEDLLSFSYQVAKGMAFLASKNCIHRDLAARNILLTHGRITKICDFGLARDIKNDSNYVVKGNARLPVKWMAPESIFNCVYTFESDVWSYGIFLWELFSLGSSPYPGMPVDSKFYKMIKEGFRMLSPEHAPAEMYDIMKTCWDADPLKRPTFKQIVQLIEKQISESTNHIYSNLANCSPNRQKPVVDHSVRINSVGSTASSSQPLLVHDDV
Sequence of PIK3CA (human), P42336 [Q546K] (P42336 whole entry Q546K, looked up): as the sequence (P42336 whole entry I800L, looked up) above, with Q546K, L800I counted along it
Sequence of PIK3CA (human), P42336 [E545A] (P42336 whole entry E545A, looked up): as the sequence (P42336 whole entry I800L, looked up) above, with E545A, L800I counted along it
Sequence of EIF2AK4 KD2 (human), Q9P2K8 [S808G] (Q9P2K8 whole entry S808G, looked up): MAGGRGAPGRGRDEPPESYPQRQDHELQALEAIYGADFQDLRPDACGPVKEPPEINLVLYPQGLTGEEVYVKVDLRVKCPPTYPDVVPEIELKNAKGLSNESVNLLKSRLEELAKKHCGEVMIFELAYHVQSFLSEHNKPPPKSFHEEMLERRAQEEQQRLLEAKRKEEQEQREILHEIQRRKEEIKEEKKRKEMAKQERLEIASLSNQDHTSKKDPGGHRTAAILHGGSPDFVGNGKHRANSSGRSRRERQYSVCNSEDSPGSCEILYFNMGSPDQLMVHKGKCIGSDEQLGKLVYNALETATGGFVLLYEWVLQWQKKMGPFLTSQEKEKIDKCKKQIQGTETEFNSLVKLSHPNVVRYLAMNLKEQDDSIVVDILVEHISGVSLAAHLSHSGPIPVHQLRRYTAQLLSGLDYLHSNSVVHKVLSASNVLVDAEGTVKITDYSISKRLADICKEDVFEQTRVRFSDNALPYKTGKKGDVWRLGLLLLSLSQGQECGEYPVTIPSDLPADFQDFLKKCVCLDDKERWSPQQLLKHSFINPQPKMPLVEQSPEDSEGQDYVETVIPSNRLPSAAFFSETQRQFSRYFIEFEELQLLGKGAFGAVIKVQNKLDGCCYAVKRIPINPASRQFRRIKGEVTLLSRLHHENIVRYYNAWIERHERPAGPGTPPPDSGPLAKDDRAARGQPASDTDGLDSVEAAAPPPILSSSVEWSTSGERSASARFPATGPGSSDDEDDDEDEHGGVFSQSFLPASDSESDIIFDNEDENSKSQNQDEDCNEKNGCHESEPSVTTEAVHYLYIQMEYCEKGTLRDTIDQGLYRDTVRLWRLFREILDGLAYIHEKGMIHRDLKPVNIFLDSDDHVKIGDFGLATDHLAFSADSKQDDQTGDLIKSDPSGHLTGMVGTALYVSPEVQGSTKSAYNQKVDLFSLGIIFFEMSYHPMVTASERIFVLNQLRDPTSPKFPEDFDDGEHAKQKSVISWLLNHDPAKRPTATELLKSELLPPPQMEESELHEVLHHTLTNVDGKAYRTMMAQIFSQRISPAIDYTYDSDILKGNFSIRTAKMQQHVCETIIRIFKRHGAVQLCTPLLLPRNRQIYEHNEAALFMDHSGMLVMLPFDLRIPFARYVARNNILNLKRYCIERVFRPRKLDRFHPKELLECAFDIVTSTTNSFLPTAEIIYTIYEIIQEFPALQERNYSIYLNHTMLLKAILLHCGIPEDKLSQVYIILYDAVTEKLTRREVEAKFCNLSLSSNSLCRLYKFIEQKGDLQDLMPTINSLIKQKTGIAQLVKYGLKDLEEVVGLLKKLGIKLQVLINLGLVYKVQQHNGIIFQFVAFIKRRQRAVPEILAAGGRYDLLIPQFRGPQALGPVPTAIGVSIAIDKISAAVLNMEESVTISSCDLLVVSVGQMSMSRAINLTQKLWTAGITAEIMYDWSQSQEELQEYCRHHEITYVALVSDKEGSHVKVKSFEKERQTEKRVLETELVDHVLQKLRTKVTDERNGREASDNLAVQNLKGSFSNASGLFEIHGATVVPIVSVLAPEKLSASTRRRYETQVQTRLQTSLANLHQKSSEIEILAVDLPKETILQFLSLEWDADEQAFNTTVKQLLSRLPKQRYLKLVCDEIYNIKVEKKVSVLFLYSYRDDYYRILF
Sequence of PIK3CA (human), P42336 [H1047Y] (P42336 whole entry H1047Y, looked up): as the sequence (P42336 whole entry I800L, looked up) above, with L800I, H1047Y counted along it
Sequence of KIT (human), P10721 [V559D] (P10721 whole entry V559D, looked up): as the sequence (P10721 whole entry V559D/T670I, looked up) above, with I670T counted along it
Sequence of KIT (human), P10721 [D816V] (P10721 whole entry D816V, looked up): as the sequence (P10721 whole entry V559D/T670I, looked up) above, with D559V, I670T, D816V counted along it
Sequence of PIK3CA (human), P42336 [C420R] (P42336 whole entry C420R, looked up): as the sequence (P42336 whole entry I800L, looked up) above, with C420R, L800I counted along it
Sequence of PIK3CA (human), P42336 [E545K] (P42336 whole entry E545K, looked up): as the sequence (P42336 whole entry I800L, looked up) above, with E545K, L800I counted along it

kinase still bound, per cent of control [1] [%] | kinase still bound, per cent of control [2] [%] | kinase still bound, per cent of control [3] [%] | kinase still bound, per cent of control [4] [%] | kinase still bound, per cent of control [5] [%] | kinase still bound, per cent of control [6] [%] | kinase still bound, per cent of control [7] [%] | kinase still bound, per cent of control [8] [%] | kinase still bound, per cent of control [9] [%] | kinase still bound, per cent of control [10] [%] | kinase still bound, per cent of control [11] [%] | kinase still bound, per cent of control [12] [%] | kinase still bound, per cent of control [13] [%] | kinase still bound, per cent of control [14] [%] | kinase still bound, per cent of control [15] [%] | kinase still bound, per cent of control [16] [%] | kinase still bound, per cent of control [17] [%] | kinase still bound, per cent of control [18] [%] | kinase still bound, per cent of control [19] [%] | Structure (SMILES)
2.8 | 0.5 | 0.25 | 3.6 | 0.1 | 0.05 |  |  |  |  |  |  |  |  |  |  |  |  |  | CNC(=O)c1cc(Oc2ccc(NC(=O)Nc3ccc(Cl)c(C(F)(F)F)c3)cc2)ccn1
22 |  | 2.2 | 16 | 45 | 16 | 29 | 66 | 100 | 79 | 66 | 100 | 1.2 | 100 | 100 | 100 | 100 |  |  | N#CCNC(=O)c1ccc(-c2ccnc(Nc3ccc(N4CCOCC4)cc3)n2)cc1
87 | 79 | 79 | 89 | 100 | 17 |  |  |  |  |  |  | 81 |  | 100 | 47 | 38 | 33 | 100 | COCC(=O)NC/C=C/c1ccc2ncnc(Nc3ccc(Oc4ccc(C)nc4)c(C)c3)c2c1

More lines, now with the values behind:

Structure (SMILES) | kinase still bound, per cent of control [1] [%] | kinase still bound, per cent of control [2] [%] | kinase still bound, per cent of control [3] [%] | kinase still bound, per cent of control [4] [%] | kinase still bound, per cent of control [5] [%] | kinase still bound, per cent of control [6] [%] | kinase still bound, per cent of control [7] [%] | kinase still bound, per cent of control [8] [%] | kinase still bound, per cent of control [9] [%] | kinase still bound, per cent of control [10] [%] | kinase still bound, per cent of control [11] [%] | kinase still bound, per cent of control [12] [%] | kinase still bound, per cent of control [13] [%] | kinase still bound, per cent of control [14] [%] | kinase still bound, per cent of control [15] [%] | kinase still bound, per cent of control [16] [%] | kinase still bound, per cent of control [17] [%] | kinase still bound, per cent of control [18] [%] | kinase still bound, per cent of control [19] [%]
CC(=O)c1c(C)c2cnc(Nc3ccc(N4CCNCC4)cn3)nc2n(C2CCCC2)c1=O | 20 | 30 | 2.1 | 74 | 61 | 45 | 44 |  |  |  | 82 | 87 | 0.4 | 41 | 75 | 17 | 10 | 10 | 6
C[C@@H](Oc1cc(-c2cnn(C3CCNCC3)c2)cnc1N)c1c(Cl)ccc(F)c1Cl |  | 5.6 | 2 | 32 | 7 | 27 |  |  |  |  |  |  | 100 | 71 | 100 | 18 | 17 | 21 | 
N#C/C(=C1/Nc2ccccc2S1)c1ccnc(NCCc2cccnc2)n1 | 92 | 95 | 48 | 50 | 52 | 26 | 79 | 88 |  |  |  |  | 60 | 86 | 96 | 66 | 81 | 41 | 27
CCc1nc(-c2cccc(C)c2)c(-c2ccnc(NC(=O)c3ccccc3)c2)s1 | 50 | 17 | 28 | 5.6 |  | 32 | 24 |  |  |  |  |  | 100 | 72 | 98 | 50 | 32 | 54 | 99
